These results are taken from US6517856B1, “Insecticide resistance assay” (priority 1998, dated 2003).

The nature of data set [1]: Octanol-water partition coefficient (Kow). Format: physicochemical. The settings on record: method of Leo et al. (1971), mean of 3 replicates.
The subject of another data set is tobacco budworm neonates. Briefly: Larval feeding disruption assay for spinosad resistance. The note with it: 1.6 μg active ingredient per ml diet, 24 h. Format: in vivo, Heliothis virescens. How it is done: The Bt feeding disruption assay described above was modified to monitor spinosad resistance in tobacco budworms. Trypan Blue (Direct Blue 14, Matheson Coleman and Bell, Norwood, Ohio) was blended into artificial diet (described above) at the rate of 20 mg of dye per 100 ml diet. This diet also was formulated with 1.6 μg of spinosad active ingredient per ml diet. The spinosad was added to the diet as part of a 44.2% aqueous formulation provided to us by Dr. Clyde Sorenson (NC State University, Raleigh, N.C.). […] The blue indicator diet with spinosad was dispensed at the rate of 100 μl per well into 8-well microtitre plate strips (Nalge Nunc Int., Napersville, Ill.). The wells were sealed with strip caps (Nunc). In order to reduce condensation within the wells, caps were punctured twice with a #3 insect pin.
Hv Franklin (spinosad susceptible) and spinosad resistant (selected) neonates of the tobacco budworm were used in all assays and were added to the assay diet within 24 h of hatch. Hv Franklin has been previously shown to be representative of other field collected H. virescens strains in spinosad toxicity. Selection of our laboratory colony of tobacco budworms which were originally collected from various locations in North Carolina, with technical spinosad applied topically each generation, produced insects that were highly resistant to spinosad.
Bioassays were conducted at 27±1° C. with a 14:10 L:D cycle, and the number of blue fecal pellets produced were counted after a 24 h exposure of the neonates to the diet. Results were taken from two replicates consisting of 24 insects per replicate.

Another data set has as its system H. virescens. Briefly: Effect of Trypan Blue in diet on rate of feces production, third instars. Type of data set: in vivo, Heliothis virescens. The settings on record: no Bt, confidence interval in brackets. How it is done: The blue diet used in the feeding disruption bioassay is an agar based insect meal containing 20 mg of Trypan Blue (Direct Blue 14; Matheson Coleman & Bell, Norwood, Ohio) per 100 ml of standard artificial diet, and containing different concentrations of CryIAc (MVP, Mycogen). Larvae feeding on this colored diet produced blue feces which were easily distinguished by observation from feces derived from other food sources. Assays were conducted in 1-ounce clear plastic cups (Solo Cup Company, Urbana, Ill.; approximately […] in diameter and ¾ inches high) fitted with white cardboard tops, which are routinely used for insect rearing in the inventors' laboratories. The clear plastic allowed for the observation of blue feces without opening the container.
The rate of feces production was examined for third instars of both the Wake (Bt susceptible) and YHD2 (Bt resistant) strains of H. virescens, to examine the effects of adding Trypan Blue to the standard artificial diet (the “Blue diet”). Wake budworms produced 30.6 ([…], 27.6-33.6) fecal pellets/hour/15 larvae on regular diet, and 25.5 (22.5-28.5) fecal pellets/hour/15 larvae on Trypan Blue diet. This difference, although small, was statistically significant as indicated by a significant diet×time interaction (F=6.05; df=1,24; P=0.0215) (PROC GLM procedure, SAS 1991). (Data not shown). […]

Setting [2] is: Hv spinosad selected (resistant) neonates.

`COC(=O)/C=C(\C)CC/C=C(\C)CC[C@H]1OC1(C)C` [juvenile hormone III]: the “Octanol-water coefficient (Kow)” value in data set [1] came out at 165.33. Consider `CC(C)CCC[C@@H](C)[C@H]1CC[C@H]2[C@@H]3CC=C4C[C@@H](O)CC[C@]4(C)[C@H]3CC[C@]12C` [cholesterol], for which the “Octanol-water coefficient (Kow)” value in data set [1] came out at 0.46. With spinosad, in the data set on tobacco budworm neonates (setting [2]), the “percentage producing 3-5 pellets” value is listed as 2.3% and the “percentage producing >2 fecal pellets” value amounted to 100%. For the same molecule, the “percentage producing 0-2 fecal pellets” value with tobacco budworm neonates (susceptible Hv Franklin neonates) was found to be 100%. Take `Cc1cc(-c2ccc(/N=N/c3c(S(=O)(=O)O)cc4cc(S(=O)(=O)O)cc(N)c4c3O)c(C)c2)ccc1/N=N/c1c(S(=O)(=O)O)cc2cc(S(=O)(=O)O)cc(N)c2c1O` [Trypan Blue]: the “rate of fecal pellet production on Trypan Blue diet” value was 25.5 (22.5-28.5) fecal pellets/hour/15 larvae in the data set with H. virescens (Wake third instars) and 34.9 (32.5-37.3) fecal pellets per hour per 15 larvae in the data set with H. virescens (YHD2 third instars).
